How the values were obtained:
Type in all cases: cell-based, Chinese Hamster
[1] = system: CHO perfusion cell culture; assay: Deep-well plate perfusion cell culture model, acetylsalicylic acid (ASA) in perfusion media with 500 μM arachidonic acid
Description: (§1) The below examples, unless specified otherwise, were carried out using the following generalized protocol and apparatus for perfusion cell culture. Two different formats of perfusion culture process were employed for the experiments described in the examples. One is executed in a bioreactor model and the other is in a deep-well plate model.
(§2) The deep-well plate model is carried out using 24 deep-well plates with an 8 day run duration. A starting cell density of 20e^6 cells/ml is targeted for deep well plate model work. The working volume per well is 3 ml and cells are grown at 33° C. with 5% CO2, 80% humidity, and 200 rpm in an incubator with a 5.0 cm orbit diameter. Medium exchanges are performed daily by centrifuging the plate at 1800 rpm for 5 mins, removing supernatant, and re-suspending the cells in fresh media at 70% volume per day (VVD) exchange rate. Further details of the setup is described by Lin et al. (Biotechnol. Prog., 2017, Vol. 33, No. 4).
In this example, the deep-well plate model is used. ASA is an inhibitor of COX-1 and COX-2, which are the metabolic enzymes which convert arachidonic acid to synthesize prostaglandin E2 (See FIG. 2). This experiment therefore analyses the effect of acetylsalicylic acid (ASA) when added to perfusion medium.
The data provide evidence that prostaglandin E2 is effective in triggering cell growth suppression and in increasing cell specific productivity.

[2] = system: CHO perfusion cell culture; assay: cells; conditions: for increase of the cell specific productivity: relative to cell culture without the additive; for cell growth (VCD) relative to normal perfusion media / specific productivity relative to normal perfusion media: each concentration (arachidonic acid 500 μM; PGE2 0.001, 10, 20, 60 μM), before day 6
Description: as §1, §2
In this example, the deep-well plate model is used.
Linoleic acid at various concentrations 500 μM, 900 μM, 1350 μM and 1800 μM was added to the cell culture media and the effects on (A) viable cell density (e^5 cells/nil), (B) percent (%) cell viability and (C) specific productivity (qp) were determined.
In this example, the deep-well plate model is used. This example analyzes the effect of arachidonic acid when added to perfusion medium.
The effect of arachidonic acid on (A) viable cell density (e^5 cells/nil), (B) percent (%) cell viability and (C) specific productivity (qp) of the cell culture was determined.
In this example, the deep-well plate model is used. This experiment analyzes the effect of prostaglandin E2 when added to perfusion medium.
At each concentration, the VCD and specific productivity (i.e., specific titer), the growth was suppressed cell growth and the specific productivity was increased before day 6 relative to the cell culture in normal perfusion media.

[3] = system: CHO perfusion cell culture; assay: Deep-well plate perfusion cell culture model, arachidonic acid added to k-pop (high potassium) perfusion medium; conditions: 150 μM to 500 μM in medium with about 34 mM sodium and 94 mM potassium; beyond the effect of high potassium alone
Description: as §1
as §2, with “4). […]” for “4).”
The effect of concentrations of arachidonic acid added at 150 μM, 300 μM and 500 μM to a cell culture media having a sodium concentration of approximately 34 mM and a preexisting high potassium concentration of approximately 94 mM, i.e., a low sodium-to-potassium ratio of about 0.4, was determined with respect to (A) viable cell density (e^5 cells/nil), (B) percent (%) cell viability and (C) specific productivity (qp) was determined.

[4] = ASA in perfusion media with 500 μM arachidonic acid
[5] = 500 μM added in the normal perfusion media (Example 3, FIG. 4)
[6] = Cricetulus griseus, read-out: decrease of the VCD (viable cell density)
[7] = added to perfusion medium, 500-1800 μM (Example 2, FIG. 3)

SMILES: CC(=O)Oc1ccccc1C(=O)O [ASA, acetylsalicylic acid]
- specific productivity compared with normal perfusion medium [1, 4]: same effect
- viable cell density compared with normal perfusion medium [1, 4]: higher

SMILES: CCCCC/C=C\C/C=C\C/C=C\C/C=C\CCCC(=O)O [arachidonic acid]
- suppressing cell growth and increasing productivity ([1]; 500 μM arachidonic acid when COX-1 and COX-2 are inhibited by ASA): no effect
- increase of cell specific productivity (qp) [2, 5]: ≥ 46%
- suppression of cell growth [2, 5]: up to 31%
- increase of the cell specific productivity ([2]; 500 μM in growth medium): up to 52%
- cytotoxicity at 500 µM [2, 6]: 15 to 36%
- cell growth (VCD) relative to normal perfusion media [2]: suppressed
- specific productivity relative to normal perfusion media [2]: increased
- cell growth [3]: decreases cell growth
- cell specific productivity [3]: improves cell specific productivity

SMILES: CCCCC/C=C\C/C=C\CCCCCCCC(=O)O [linoleic acid]
- increase of the cell specific productivity ([2]; 500 μM in growth medium): up to 10%
- increase of the cell specific productivity ([2]; 900 μM in growth medium): up to 14%
- increase of the cell specific productivity ([2]; 1350 μM in growth medium): up to 14%
- increase of the cell specific productivity ([2]; 1800 μM in growth medium): up to 30%
- viable cell density, viability and specific productivity relative to the normal perfusion media ([2]; 1800 μM, similar to arachidonic acid at 500 μM): most significant difference
- cell specific productivity relative to normal perfusion media ([2]; 500, 900 and 1350 μM, day 7, about the same at the three concentrations): significantly increased
- cytotoxicity at 500 µM [2, 6]: 6 to 10%
- cytotoxicity at 900 µM [2, 6]: 11 to 14%
- cytotoxicity at 1350 µM [2, 6]: 11 to 25%
- cytotoxicity at 1800 µM [2, 6]: 23 to 39.8%
- cell growth [2, 7]: suppresses cell growth
- cell specific productivity (qp) [2, 7]: increases cell specific productivity

SMILES: CCCCC[C@H](O)/C=C/[C@H]1[C@H](O)CC(=O)[C@@H]1C/C=C\CCCC(=O)O [prostaglandin E2]
- increase of the cell specific productivity ([2]; 0.001 μM in growth medium): up to 13.5%
- increase of the cell specific productivity ([2]; 10 μM in growth medium): up to 34.4%
- increase of the cell specific productivity ([2]; 20 μM in growth medium): up to 31%
- increase of the cell specific productivity ([2]; 60 μM in growth medium): up to 31%
- cell growth (VCD) relative to normal perfusion media [2]: suppressed
- specific productivity relative to normal perfusion media [2]: increased
